# Experimental data taken from patent publication US6821746B2, “Methods of screening for FabK antagonists and agonists” (priority 2000, dated 2004).
# Target: T1, S.pneumoniae FabK, enoyl-ACP reductase (Streptococcus pneumoniae, UniProt Q9FBC5, T318A)
# T1 construct: […]; made in house; host or cells: E. coli BL21 (DE3) harboring tRNA vector pRR692; plasmid pET24bSpfabK
# Experiment: FabK enzyme activity assay (NADH oxidation at 340 nm, crotonoyl-ACP reduction)
# Type: biochemical
# Conditions: NH4+ at 100 mM; greatest activation among monovalent cations
# Procedure: FabK catalyses the reduction of enoyl-ACPs with the concommitant oxidation of NADH. Crotonoyl-ACP can be prepared as described below. The reduction of crotonoyl-ACP to butyryl-ACP can be monitored by following the change in absorbance at 340 nm as NADH is oxidised.
# Assays were carried out in Costar 3696 half-area plates in a final assay volume of 150 ul on a Spectramax platereader. Substrates, NADH and crotonoyl ACP, were incubated with FabK enzyme in 100 mM N-[2-acetamido]-2 iminodiacetic acid (ADA), pH 6.5, 100 mM NH4Cl, 4% glycerol at 30° C. and the reaction monitored at 340 nm. This assaying can also be performed using crotonyl CoA, NADPH or an NADH analogue as a substrate.
# T1 sequence (Q9FBC5 whole entry T318A): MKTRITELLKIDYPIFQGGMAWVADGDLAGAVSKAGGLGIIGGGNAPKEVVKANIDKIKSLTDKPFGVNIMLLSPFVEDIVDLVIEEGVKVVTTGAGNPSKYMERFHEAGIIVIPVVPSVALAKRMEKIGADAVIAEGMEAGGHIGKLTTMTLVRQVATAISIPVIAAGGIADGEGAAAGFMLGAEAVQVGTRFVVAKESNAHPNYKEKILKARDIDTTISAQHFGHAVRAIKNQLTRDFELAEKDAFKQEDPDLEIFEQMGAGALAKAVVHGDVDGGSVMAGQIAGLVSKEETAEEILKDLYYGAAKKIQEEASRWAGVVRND
compound,measurement,value
"Cl.N [NH4+, NH4^+]",activation of the FabK reaction over the reaction with no monovalent cations,about 300 fold
